Test results: patent US20090081197A1 (Palatin Technologies, Inc., priority 2007, published 2009)
Non-standard residues stand in square brackets, D forms with d. Residues, ends and D or L forms follow the SMILES beside them. *: point of attachment. dPhe(4-Cl) = N[C@H](Cc1ccc(Cl)cc1)C(=O)O; Ahp = NCCCCCCC(=O)O; Bn = c1ccc(C*)cc1

Assays:
MC4-R = MC4-R (Homo sapiens, UniProt P32245); assay: Assay for neutral antagonist, Schild analysis (pA2) against NDP-α-MSH; assay type: cell-based; set-up: expressed in transfected cells; host or cells: HEK-293; conditions: Schild analysis vs NDP-α-MSH; read-out: pA2 value as antagonist at MC4-R in a normal system (converted)
MC4-R, sequence (P32245 whole entry): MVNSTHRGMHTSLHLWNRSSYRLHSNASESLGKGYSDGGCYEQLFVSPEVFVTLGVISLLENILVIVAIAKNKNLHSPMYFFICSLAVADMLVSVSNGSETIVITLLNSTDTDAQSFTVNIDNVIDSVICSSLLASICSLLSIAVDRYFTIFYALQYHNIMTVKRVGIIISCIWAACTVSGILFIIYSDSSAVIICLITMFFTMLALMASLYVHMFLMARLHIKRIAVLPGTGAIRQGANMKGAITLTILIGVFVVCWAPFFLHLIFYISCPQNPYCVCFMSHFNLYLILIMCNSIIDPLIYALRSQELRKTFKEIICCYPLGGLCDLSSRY
Description: Assay for Neutral Antagonist. […] These studies were carried out in HEK-293 cells expressing the MC4-R receptor. Cells were incubated with the compounds in the presence of the agonist NDP-α-MSH and the extent of antagonism was measured by the decrease in the level of intracellular cAMP. Screening the compounds for antagonists was done at a single concentration of NDP-α-MSH (1.0 nM) over a compound concentration range of 0.5-5000 nM.
Experimental details were similar to the analysis for agonistic activity described above. Briefly, cells were pre-incubated for 30 minutes with the test compounds at concentrations between 0.5 nM and 5000 nM. The cells were then stimulated with NDP-α-MSH at a concentration of 1 nM for 1 hour. For Schild analysis, the interactions were studied using at least 3 concentrations of the compounds, separated by a log unit, over a full range of the agonist (0.005-5000 nM). cAMP levels was measured in the cell lysates after appropriate dilution. Nonlinear regression analysis with Prism Graph-Pad software was used for Schild analysis and to obtain EC50 values. pA2 values were derived from the Schild plot of the data.

[1] = IV and IP food intake and body weight change, rats; assay type: in vivo; conditions: rat, IV
In short: (§1)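 Male Sprague-Dawley rats dosed IV (0.5-3, up to 10 mg/kg) or IP (0.5-10, up to 50 mg/kg); male C57BL/6 mice dosed IP. Change in food intake and body weight over 24 h post-dose versus 1-week vehicle baseline, with 48 and 72 h reversal checks.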

MC5-R = MC5-R (Homo sapiens, UniProt P33032); assay: Competitive inhibition assay using [I^125]-NDP-α-MSH, hMC5-R membranes; assay type: binding; set-up: expressed in transfected cells; conditions: 1 μM test compound; read-out: Inhibition at 1 μM (NDP-α-MSH) In Normal System, MC5-R
MC5-R, sequence (P33032 whole entry): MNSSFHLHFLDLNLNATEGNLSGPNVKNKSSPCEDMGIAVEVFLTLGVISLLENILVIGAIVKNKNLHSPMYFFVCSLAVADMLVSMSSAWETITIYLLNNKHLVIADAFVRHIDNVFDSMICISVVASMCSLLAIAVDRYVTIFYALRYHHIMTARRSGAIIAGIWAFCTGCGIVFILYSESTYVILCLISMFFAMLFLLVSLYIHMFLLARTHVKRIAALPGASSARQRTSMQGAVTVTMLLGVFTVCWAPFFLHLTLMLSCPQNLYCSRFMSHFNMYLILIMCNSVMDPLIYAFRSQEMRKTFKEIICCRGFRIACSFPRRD
In short: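 Tracer was 0.4 nM for MC3-R and MC5-R, 0.2 nM for MC4-R and 0.1 nM for MC1-R. Bound radioactivity was gamma-counted after filtration; values are triplicate means, with results below 0% reported as 0%.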

[2] = IP (and IN) food intake, mice; assay type: in vivo; conditions: mouse, IP, 10 mg/kg, 4 hours
In short: as §1

SMILES	Kb (MC4-R) [nM]	24 hour decrease in food intake ([1]; dose not stated) [%]	decrease in body weight ([1]; dose not stated, 24 hours) [%]	inhibition at 1 µM (MC5-R) [%]	maximal decrease in food intake ([1]; 10 mg/kg, 24 hours) [%]	maximal decrease in food intake [2] [%]
N=C(N)NCCC[C@H](NC(=O)[C@@H](Cc1ccc(Cl)cc1)NC(=O)[C@H](COCc1ccccc1)NC(=O)CCCCCCN)C(=O)N[C@@H](Cc1c[nH]c2ccccc12)C(=O)N[C@@H](CC(=O)O)C(N)=O [Example 13, NH2—(CH2)6—C(═O)-Ser(Bzl)-D-Phe(4-Cl)-Arg-Trp-Asp-NH2] (H-[Ahp]S(Bn)[dPhe(4-Cl)]RWD-NH2)	50.1	6	1	48		
N=C(N)NCCC[C@H]1CN(CCc2ccc3ccccc3c2)CCN1C(=O)[C@H](N)Cc1ccc(Cl)cc1Cl [Example 17, N-{3-[(S)-1-[(R)-2-Amino-3-(2,4-dichloro-phenyl)-propionyl]-4-(2-naphthalen-2-yl-ethyl)-piperazin-2-yl]-propyl}-guanidine]				75	91	86
